The source of these data is US8927521B2, “Cyclic adenosine monophosphates for reducing the formation of adhesions” (University of Pittsburgh—of the Commonwealth System of …, priority 2008, dated 2015).

In data set [1] the test system is post-surgical adhesion formation. The experiment in a line: Post-surgical adhesion formation in mice, all groups co-treated with 1,3-dipropyl-8-(p-sulfophenyl)xanthine (Example 2). Type of data set: in vivo. As to conditions: for adhesion score (mean±standard error of mean): scale 1 to 5; for adhesion scores (individual animals): one value per mouse. The procedure:
(§1) This protocol examined the effects of several treatments on post-surgical adhesion formation. Six-week-old C57Bl mice were fasted overnight and then anesthetized the following day with an intraperitoneal injection of pentobarbital (50 mg/kg). The surgical procedures were conducted under aseptic conditions. The abdomen was shaved to remove hair, and the incision site was cleaned with betadine solution. Surgery was performed under a laminar flow hood using instruments sterilized in a glass bead sterilizer. The abdomen was opened via a midline incision of approximately 10 mm. The cecum was exposed and placed on sterile gauze. […] After 30 seconds, the ethanol was washed from the cecum surface with 1-ml of test solution. Next, the cecum was returned to the peritoneal cavity and placed in its natural position. Then 1-ml of test solution was placed in the peritoneal cavity, and the abdominal incision was repaired by suturing. […] The animals were placed under a warming lamp and observed until they regained consciousness. After regaining consciousness, the mice were placed back in the housing cage.
Ten days later, the animals were again anesthetized with pentobarbital, and the abdomen was surgically opened to provide a clear view of the intestines. The severity of adhesion formation was assessed on a semi-quantitative scale from 1 to 5, taking into account the extent of adhesion formation (with 1 being the least amount of adhesion formation and 5 being the most amount of adhesion formation). Adhesions were identified visually and by noting the difficulty of separating adjacent surfaces. Adhesion scores were assigned by an individual blinded to (that is unaware of) the test solutions used to treat the animals. The scoring was based on the extent of adhesion of the cecum to itself and to adjacent tissues or organs. A score of 1 was assigned to animals when there was only minimal (approximately >10 to <20%) adhesion of the cecum to itself (that is within the cecum core) with no adhesion of the cecum to other adjacent structures (abdominal wall, liver or intestines). A score of 2 was assigned when there was mild (approximately >20 to <30%) adhesion of the cecum to itself or when there was minimal (approximately >10 to <20%) adhesion of the cecum to itself but in addition minimal adhesion of the cecum to adjacent structures. A score of 3 was assigned to animals when the adhesion of the cecum to itself was moderate (approximately >30 to <50%), in the absence or presence of minimal adhesion of the cecum to adjacent structures. A score of 4 was assigned to animals when the adhesion of the cecum to itself was severe (approximately >60 to <80%) or when there was moderate adhesion to adjacent structures or both. A score of 5 was assigned to animals when adhesion of the cecum to itself was so extensive that it existed as one entity (complete adhesion within itself) or when there was severe adhesion of the cecum to itself but in addition severe adhesion of the cecum to adjacent structures.

For data set [2], the system named is P1 adenosine receptor subtypes (A1, A2A, A2B and A3). Particulars: at 1 mM; cited from earlier work.
Data set [3] relates to post-surgical adhesion formation. As to the kind of experiment: Post-surgical abdominal adhesion formation after cecum injury in mice (Example 1). The format is in vivo, C57Bl mice. As to conditions: for adhesion score compared with saline control group or other treatments (Fisher's Least Significant Difference test): post-hoc analysis, Example 1; for adhesion score (mean±standard error of mean): 1 ml wash + 1 ml in peritoneal cavity, scored ten days later; for adhesion scores for all mice (individual animals): one value per mouse. The procedure:
as §1, with “cage. Ten days later, the animals were again anesthetized with pentobarbital, and the abdomen was surgically opened to provide a clear view of the intestines. […] Adhesions were identified visually and by noting the difficulty of separating adjacent surfaces. Adhesion scores were assigned by an individual blinded to (that is unaware of) the test solutions used to treat the animals. The scoring was based on the extent of adhesion of the cecum to itself and to adjacent tissues or organs. […] In this example, there were six groups that were treated with test solutions containing chemical agents of interest. In addition, there was a seventh group (the control group) in which the test solution was only the vehicle in which the chemical agents of interest were dissolved. The vehicle for all six test solutions was 0.9% saline, so the seventh group (control group) received only 0.9% saline as the test solution.” for “cage.”

The text on data set [4]:
However, there are serious limitations with regard to using adenosine for this purpose that preclude an optimal anti-adhesive efficacy. […] Dis Colon Rectum. […] Consequently the time-concentration profile of adenosine in the surgical field cannot be optimized.

The mark [5] stands for this setting: scale 1 to 5, 75 millimoles/L in 0.9% saline.

Molecules are shown by their SMILES. “And” between values parts separate entries of the source, which are not always exact repeats. Equal entries are not always repeated.

For the molecule `CCCn1c(=O)c2[nH]c(-c3ccc(S(=O)(=O)O)cc3)nc2n(CCC)c1=O` [1,3-dipropyl-8-(p-sulfophenyl)xanthine], the “adhesion score (mean±standard error of mean)” value in data set [1] (1,3-dipropyl-8-(p-sulfophenyl)xanthine 1 mM + saline only (group headed Saline)) is on record as 4.75±0.22. The “adhesion scores (individual animals)” value in data set [1] (1,3-dipropyl-8-(p-sulfophenyl)xanthine 1 mM + saline only) was 5 (3×) and 4. The “blockade of adenosine receptor subtypes” value in data set [2] was “blocks all four P1 adenosine receptor subtypes”.

Consider `Nc1ncnc2c1ncn2[C@@H]1O[C@H](CO)[C@@H](OP(=O)(O)O)[C@H]1O` [3′-adenosine monophosphate], for which the “efficacy in inhibiting formation of post-surgical abdominal adhesions (in words)” value (shortened to “efficacy in inhibiting formation”) in data set [3] (75 millimoles/L) is “nearly inactive”. The “adhesion score compared with saline control group or other treatments (Fisher's Least Significant Difference test)” value in data set [3] is on record as “only slightly less than”. Further, in data set [3] (setting [5]), the “adhesion score (mean±standard error of mean)” value is 4.00±0.17. The “adhesion scores for all mice (individual animals)” value (from here on “adhesion scores for all mice”) in data set [3] (scale 1 to 5, 75 millimoles/L, listed as 3′-AMP) is 4 (8×) and 3 (2×) and 5 (2×).

As to `Nc1ncnc2c1ncn2[C@@H]1O[C@H](CO)[C@@H](O)[C@H]1OP(=O)(O)O` [2′-adenosine monophosphate], the “efficacy in inhibiting formation” value in data set [3] (75 millimoles/L) was “nearly inactive”. In data set [3], the “adhesion score compared with saline control group or other treatments (Fisher's Least Significant Difference test)” value is recorded as “only slightly less than”. For the same molecule, in data set [3] (setting [5]), the “adhesion score (mean±standard error of mean)” value came to 4.08±0.15. For the same molecule, the “adhesion scores for all mice” value in data set [3] (scale 1 to 5, 75 millimoles/L, listed as 2′-AMP) was 4 (9×) and 3 and 5 (2×).

`Nc1ncnc2c1ncn2[C@@H]1O[C@H](COP(=O)(O)O)[C@@H](O)[C@H]1O` [5′-adenosine monophosphate]: in data set [4], the “concentration of stable aqueous solutions (aqueous solubility)” value is on record as more than 75 millimoles/L. Besides, the “efficacy in inhibiting formation” value in data set [3] (75 millimoles/L) is “nearly inactive”. In addition, the “adhesion score compared with saline control group or other treatments (Fisher's Least Significant Difference test)” value in data set [3] is on record as “only slightly less than”. The “adhesion score (mean±standard error of mean)” value in data set [3] (setting [5]) was determined as 3.82±0.18. In addition, the “adhesion scores for all mice” value in data set [3] (scale 1 to 5, 75 millimoles/L, listed as 5′-AMP) is 4 (7×) and 3 (3×) and 5.

For the molecule `Nc1ncnc2c1ncn2[C@@H]1O[C@H](CO)[C@@H](O)[C@H]1O` [Adenosine], the “adhesion scores (individual animals)” value in data set [1] (23 mM + 1,3-dipropyl-8-(p-sulfophenyl)xanthine 1 mM) is 4 (3×) and 5. In addition, the “adhesion score (mean±standard error of mean)” value in data set [1] (23 millimoles/L + 1,3-dipropyl-8-(p-sulfophenyl)xanthine 1 mM) was 4.25±0.22; in data set [3] (scale 1 (least) to 5 (most), 23 millimoles/L in 0.9% saline), 3.08±0.15. Besides, the “adhesion score compared with the saline group (Fisher's Least Significant Difference test)” value in data set [1] (in presence of 1,3-dipropyl-8-(p-sulfophenyl)xanthine 1 mM) is “did not significantly reduce”. In addition, the “concentration of stable aqueous solutions (aqueous solubility)” value in data set [4] was not above 23 millimoles/L. For the same molecule, the “adhesion scores for all mice” value in data set [3] (scale 1 to 5, 23 millimoles/L) is 3 (9×) and 4 (2×) and 2.
